Our source for the TGI values is PubChem BioAssay (NCI).

The structures appear in SMILES notation.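 How tested: cells in 96-well plates exposed to compound for 48 hours at five concentrations. TGI is the concentration that stops growth completely.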

Some test systems named below: LOX IMVI melanoma; 786-0 renal; PC-3 prostate; SR leukemia; SK-MEL-2 melanoma; OVCAR-4 ovarian; MCF7 breast; SN12C renal; IGROV1 ovarian; MDA-MB-231 breast.
Holding throughout (experiment): growth of human tumour cells (NCI), 48 h

For the molecule `O=C1C2=Cc3ccccc3CCN2c2ccccc21`, the TGI in the assay with LOX IMVI melanoma was 38.7 µM; in the assay with 786-0 renal, over 31.6 µM; with PC-3 prostate, over 62.7 µM; in the assay with SR leukemia it was 29.5 µM; in the assay on SK-MEL-2 melanoma, 67.9 µM; with OVCAR-4 ovarian, over 100 µM. Moreover, the TGI in the assay on MCF7 breast is over 61 µM; in the assay on SN12C renal it was over 31.6 µM; with IGROV1 ovarian, over 100 µM; with MDA-MB-231 breast it was over 59.4 µM.
`CC12Nc3c(Cl)cc(Cl)cc3N1C(=O)c1ccccc12` (centres undefined): the TGI with LOX IMVI melanoma, in the assay with 786-0 renal, with PC-3 prostate, in the assay on SR leukemia, in the assay on SK-MEL-2 melanoma and in the assay on OVCAR-4 ovarian was over 100 µM throughout. Also, the TGI in the assay with MCF7 breast, in the assay on SN12C renal, in the assay on IGROV1 ovarian and with MDA-MB-231 breast was over 100 µM in each case.
`O=c1[nH]c2cccc([N+](=O)[O-])c2c(=O)n1-c1ccc(Cl)cc1`: the TGI with LOX IMVI melanoma was determined as 59.5 µM; in the assay on 786-0 renal, 55.9 µM; with PC-3 prostate it was 38.1 µM; in the assay with SR leukemia, 35.2 µM; with SK-MEL-2 melanoma, 25.6 µM; in the assay with OVCAR-4 ovarian, 16.4 µM. In addition, the TGI with MCF7 breast worked out at 25.5 µM; in the assay with SN12C renal, 33.9 µM; in the assay on IGROV1 ovarian, 40.1 µM; in the assay on MDA-MB-231 breast, 34.3 µM.
Take `CC(=O)Nc1ccc(-c2nc3ccccc3s2)cc1Br`: the TGI in the assay on LOX IMVI melanoma, in the assay on 786-0 renal, in the assay on PC-3 prostate, with SR leukemia, with SK-MEL-2 melanoma and with OVCAR-4 ovarian was over 100 µM in each case. In addition, the TGI in the assay with MCF7 breast was over 100 µM; in the assay on SN12C renal, over 100 µM; in the assay with IGROV1 ovarian it was 17.4 µM; in the assay on MDA-MB-231 breast it was over 89 µM.
For `C=CCN1C(=O)/C(=C/c2ccc(Cl)cc2)N=C1SC/C=C/C`, the TGI in the assay on LOX IMVI melanoma is over 100 µM; in the assay on 786-0 renal, over 100 µM; in the assay on PC-3 prostate, over 100 µM; with SR leukemia, 46.7 µM; with SK-MEL-2 melanoma it was 68.2 µM; in the assay with OVCAR-4 ovarian, over 100 µM. For the same molecule, the TGI with MCF7 breast is 84.3 µM; with SN12C renal, 71.1 µM; with IGROV1 ovarian it was over 100 µM; in the assay with MDA-MB-231 breast, over 100 µM.
For `CC[C@]12C=CCN3CC[C@@]4(c5cc(Br)c(OC)c([N+](=O)[O-])c5N(C)[C@H]4[C@@](O)(C(=O)OC)[C@@H]1OC(C)=O)[C@@H]32`, the TGI in the assay with LOX IMVI melanoma, in the assay on 786-0 renal, with PC-3 prostate, in the assay on SR leukemia, in the assay with SK-MEL-2 melanoma and in the assay on OVCAR-4 ovarian was over 100 µM throughout. Moreover, the TGI in the assay on MCF7 breast was over 100 µM; with SN12C renal, over 100 µM; in the assay with IGROV1 ovarian, 61.4 µM; in the assay on MDA-MB-231 breast, over 100 µM.
With `COc1cc2c(cc1OCCCNC(=O)c1cc3ccccc3[nH]1)N=C[C@@H]1CCCN1C2=O`, the TGI was over 100 µM in the assay with LOX IMVI melanoma; 41.4 µM with 786-0 renal; 5.79 µM in the assay with PC-3 prostate; over 100 µM in the assay on SR leukemia; 0.418 µM in the assay on SK-MEL-2 melanoma; 11.7 µM in the assay with OVCAR-4 ovarian. For the same molecule, the TGI with MCF7 breast is over 48.1 µM; with SN12C renal, 14.9 µM; with IGROV1 ovarian, 0.74 µM; with MDA-MB-231 breast, over 35.2 µM.
In the case of `O=C(O)c1cccc(Nc2c(C(=O)O)cccc2[N+](=O)[O-])c1`, the TGI with LOX IMVI melanoma, in the assay on 786-0 renal, in the assay with PC-3 prostate, with SR leukemia, in the assay with SK-MEL-2 melanoma and in the assay with OVCAR-4 ovarian was over 100 µM throughout. The TGI in the assay on MCF7 breast, in the assay with SN12C renal, with IGROV1 ovarian and with MDA-MB-231 breast was over 100 µM throughout.
`C=CC(C)(C)n1cc(C2=C3OC(=O)C(c4cn(C(C)(C)C=C)c5ccccc45)=C3OC2=O)c2ccccc21`: the TGI in the assay on LOX IMVI melanoma, in the assay on 786-0 renal, in the assay with PC-3 prostate, with SR leukemia, in the assay with SK-MEL-2 melanoma and with OVCAR-4 ovarian was over 100 µM throughout. Moreover, the TGI in the assay with MCF7 breast, in the assay on SN12C renal, with IGROV1 ovarian and in the assay on MDA-MB-231 breast was over 100 µM throughout.
In the case of `CCSc1nnc(Sc2c3ccccc3nc3ccccc23)s1`, the TGI in the assay with LOX IMVI melanoma was 23.7 µM; with 786-0 renal, 7.54 µM; in the assay on PC-3 prostate, 46.7 µM; in the assay on SR leukemia it was over 100 µM; with SK-MEL-2 melanoma, 56.2 µM; with OVCAR-4 ovarian it was 34.7 µM. For the same molecule, the TGI in the assay on MCF7 breast is 17.5 µM; with SN12C renal, 59.9 µM; in the assay on IGROV1 ovarian, over 55 µM; with MDA-MB-231 breast it was 56.6 µM.
Consider `Cc1c(N=Nc2ccccc2)c(-c2ccccc2)n(C2OC(CO)C(O)C(O)C2O)c(=S)c1C#N` (centres undefined), for which the TGI is 12.4 µM with LOX IMVI melanoma; 18.8 µM in the assay on 786-0 renal; 15.6 µM in the assay on PC-3 prostate; over 100 µM in the assay on SR leukemia; 21.8 µM with SK-MEL-2 melanoma; 26.1 µM with OVCAR-4 ovarian. Also, the TGI was 17.1 µM with MCF7 breast, 28.5 µM in the assay on SN12C renal, 22.5 µM in the assay with IGROV1 ovarian and 44.4 µM with MDA-MB-231 breast.
Turning to `C/C(Cl)=N/OC(=O)Nc1ccc(F)c([N+](=O)[O-])c1`, the TGI is 18.5 µM in the assay with LOX IMVI melanoma; 16.5 µM with 786-0 renal; 33.2 µM with PC-3 prostate; 30.7 µM in the assay with SR leukemia; 32.2 µM in the assay with SK-MEL-2 melanoma; 40.7 µM in the assay on OVCAR-4 ovarian. The TGI in the assay on MCF7 breast is over 49 µM; with SN12C renal it was 19.4 µM; in the assay with IGROV1 ovarian, 17.9 µM; with MDA-MB-231 breast, 37.4 µM.
Take `O=C1c2ccccc2C(=O)C2NC(CCCCCSSCCCCCC3=NC4C(=O)c5ccccc5C(=O)C4N3)=NC12` (centres undefined): the TGI in the assay on LOX IMVI melanoma, with 786-0 renal, in the assay on PC-3 prostate, with SR leukemia, in the assay with SK-MEL-2 melanoma and in the assay with OVCAR-4 ovarian was over 100 µM in each case. The TGI in the assay with MCF7 breast, in the assay with IGROV1 ovarian and in the assay on MDA-MB-231 breast was over 100 µM throughout.
